Test results: the kinase profiling compilation of Christmann-Franck et al. (2016)
One block for each compound: values may come before it.

Experiments:
Test in all cases: radiometric filter-binding kinase assay
[1] = tested on: AKT2 (human), P31751 [S474D]
[2] = molecular target: AURKB (human) (UniProt Q96GD4)
[3] = molecular target: CAMKK2 (human) (UniProt Q96RR4)
[4] = molecular target: CDK2 CCNA2 (human) (UniProt P20248+P24941)
[5] = molecular target: CHEK1 (human) (UniProt O14757)
[6] = molecular target: CSNK2A1 (human) (UniProt P68400)
[7] = molecular target: CaMK1 (human) (UniProt Q14012)
[8] = molecular target: DYRK1A (human) (UniProt Q13627)
[9] = molecular target: EPHB3 (human) (UniProt P54753)
[10] = molecular target: IGF1R (human) (UniProt P08069)
[11] = molecular target: INSR (human) (UniProt P06213)
[12] = molecular target: INSRR (human) (UniProt P14616)
[13] = tested on: LCK (mouse); conditions: accession and sequence are those of the human protein
[14] = molecular target: MAPK13 (human) (UniProt O15264)
[15] = molecular target: MARK3 (human) (UniProt P27448)
[16] = molecular target: MKNK1 (human) (UniProt Q9BUB5)
[17] = molecular target: MST4 (human) (UniProt Q9P289)
[18] = molecular target: PAK4 (human) (UniProt O96013)
[19] = molecular target: PHKG1 (human) (UniProt Q16816)
[20] = molecular target: PIM2 (human) (UniProt Q9P1W9)
[21] = tested on: PRKAA1 or PRKAA2 (rat); conditions: accession and sequence are those of the human protein
[22] = molecular target: PRKACA (human) (UniProt P17612)
[23] = molecular target: PRKCZ (human) (UniProt Q05513)
[24] = molecular target: SRC (human) (UniProt P12931)
[25] = molecular target: SYK (human) (UniProt P43405)
[26] = molecular target: YES1 (human) (UniProt P07947)
[27] = molecular target: MAP2K1 (human) (UniProt Q02750)

Sequence of IGF1R (human) (P08069 whole entry, looked up): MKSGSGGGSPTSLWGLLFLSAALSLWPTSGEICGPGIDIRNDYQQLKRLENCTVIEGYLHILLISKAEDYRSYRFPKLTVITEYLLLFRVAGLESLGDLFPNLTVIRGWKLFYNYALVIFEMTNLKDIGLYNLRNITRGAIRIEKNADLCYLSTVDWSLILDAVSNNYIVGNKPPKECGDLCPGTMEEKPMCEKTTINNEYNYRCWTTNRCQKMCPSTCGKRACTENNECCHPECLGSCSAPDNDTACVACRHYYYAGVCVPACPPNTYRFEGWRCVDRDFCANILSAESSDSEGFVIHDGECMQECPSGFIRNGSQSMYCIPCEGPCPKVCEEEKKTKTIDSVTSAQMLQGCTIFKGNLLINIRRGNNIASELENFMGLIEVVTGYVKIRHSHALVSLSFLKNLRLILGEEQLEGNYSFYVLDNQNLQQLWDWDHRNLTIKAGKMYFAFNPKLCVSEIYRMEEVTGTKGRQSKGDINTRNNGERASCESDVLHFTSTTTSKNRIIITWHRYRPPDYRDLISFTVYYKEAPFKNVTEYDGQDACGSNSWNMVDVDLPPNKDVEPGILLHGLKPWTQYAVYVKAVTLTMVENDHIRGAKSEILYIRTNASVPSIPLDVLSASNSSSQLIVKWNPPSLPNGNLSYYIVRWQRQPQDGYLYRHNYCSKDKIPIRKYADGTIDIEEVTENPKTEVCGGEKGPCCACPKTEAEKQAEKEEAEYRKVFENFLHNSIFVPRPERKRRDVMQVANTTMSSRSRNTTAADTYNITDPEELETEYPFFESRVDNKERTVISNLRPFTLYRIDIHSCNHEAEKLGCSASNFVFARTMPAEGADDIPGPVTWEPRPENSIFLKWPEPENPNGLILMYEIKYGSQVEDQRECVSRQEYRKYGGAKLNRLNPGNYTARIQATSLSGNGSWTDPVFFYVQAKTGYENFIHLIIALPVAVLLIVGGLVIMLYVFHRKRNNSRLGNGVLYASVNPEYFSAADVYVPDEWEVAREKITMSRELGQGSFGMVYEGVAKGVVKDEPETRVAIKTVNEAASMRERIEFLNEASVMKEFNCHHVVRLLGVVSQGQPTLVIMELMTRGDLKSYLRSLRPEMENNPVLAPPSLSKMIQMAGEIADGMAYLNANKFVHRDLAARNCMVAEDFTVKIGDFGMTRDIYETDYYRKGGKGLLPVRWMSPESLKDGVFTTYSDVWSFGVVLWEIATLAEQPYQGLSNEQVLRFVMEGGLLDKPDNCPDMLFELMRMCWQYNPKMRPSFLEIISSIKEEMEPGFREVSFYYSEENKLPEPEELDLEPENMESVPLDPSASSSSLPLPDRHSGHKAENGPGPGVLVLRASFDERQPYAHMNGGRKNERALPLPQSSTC
Sequence of PAK4 (human) (O96013 whole entry, looked up): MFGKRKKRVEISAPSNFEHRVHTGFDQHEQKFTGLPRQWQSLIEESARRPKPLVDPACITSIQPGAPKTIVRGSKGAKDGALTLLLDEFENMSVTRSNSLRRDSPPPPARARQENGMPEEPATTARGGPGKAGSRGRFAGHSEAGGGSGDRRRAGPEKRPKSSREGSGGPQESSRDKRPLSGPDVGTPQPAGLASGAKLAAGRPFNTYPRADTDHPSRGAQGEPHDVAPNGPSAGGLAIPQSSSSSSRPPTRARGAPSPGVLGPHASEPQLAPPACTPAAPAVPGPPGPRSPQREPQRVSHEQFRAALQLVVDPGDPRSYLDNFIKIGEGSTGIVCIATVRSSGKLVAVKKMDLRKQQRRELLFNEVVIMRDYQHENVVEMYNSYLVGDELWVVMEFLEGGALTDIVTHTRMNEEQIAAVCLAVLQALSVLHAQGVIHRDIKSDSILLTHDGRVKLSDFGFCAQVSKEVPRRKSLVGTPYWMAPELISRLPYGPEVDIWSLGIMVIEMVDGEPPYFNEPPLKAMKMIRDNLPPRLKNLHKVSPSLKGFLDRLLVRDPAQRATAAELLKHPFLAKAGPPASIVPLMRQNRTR
Sequence of EPHB3 (human) (P54753 whole entry, looked up): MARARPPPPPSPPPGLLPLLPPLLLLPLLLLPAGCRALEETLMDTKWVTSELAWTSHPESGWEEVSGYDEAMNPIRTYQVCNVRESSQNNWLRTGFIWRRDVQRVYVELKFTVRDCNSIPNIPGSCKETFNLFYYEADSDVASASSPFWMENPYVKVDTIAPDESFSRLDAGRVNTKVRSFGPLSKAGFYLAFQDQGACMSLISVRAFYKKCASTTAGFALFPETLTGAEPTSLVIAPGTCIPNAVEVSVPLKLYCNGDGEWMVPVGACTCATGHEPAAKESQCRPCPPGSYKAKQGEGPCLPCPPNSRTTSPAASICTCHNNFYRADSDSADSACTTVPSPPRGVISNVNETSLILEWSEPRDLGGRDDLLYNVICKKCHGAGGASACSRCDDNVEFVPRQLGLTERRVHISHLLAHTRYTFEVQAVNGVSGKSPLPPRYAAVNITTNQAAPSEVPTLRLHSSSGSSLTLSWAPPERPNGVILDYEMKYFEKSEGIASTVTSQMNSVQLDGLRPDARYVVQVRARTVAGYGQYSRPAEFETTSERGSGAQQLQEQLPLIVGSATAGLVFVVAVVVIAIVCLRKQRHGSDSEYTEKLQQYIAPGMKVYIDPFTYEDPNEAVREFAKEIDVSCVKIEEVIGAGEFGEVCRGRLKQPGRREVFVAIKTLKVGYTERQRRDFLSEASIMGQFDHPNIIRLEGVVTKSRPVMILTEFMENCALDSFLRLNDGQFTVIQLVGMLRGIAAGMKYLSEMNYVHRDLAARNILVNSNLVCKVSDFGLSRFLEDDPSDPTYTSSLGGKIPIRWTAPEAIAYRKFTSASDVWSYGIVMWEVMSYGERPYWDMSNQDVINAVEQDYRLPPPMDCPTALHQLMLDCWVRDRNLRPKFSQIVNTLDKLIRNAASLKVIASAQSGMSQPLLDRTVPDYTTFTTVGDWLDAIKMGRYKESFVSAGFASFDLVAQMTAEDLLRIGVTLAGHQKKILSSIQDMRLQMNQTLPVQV
Sequence of MARK3 (human) (P27448 whole entry, looked up): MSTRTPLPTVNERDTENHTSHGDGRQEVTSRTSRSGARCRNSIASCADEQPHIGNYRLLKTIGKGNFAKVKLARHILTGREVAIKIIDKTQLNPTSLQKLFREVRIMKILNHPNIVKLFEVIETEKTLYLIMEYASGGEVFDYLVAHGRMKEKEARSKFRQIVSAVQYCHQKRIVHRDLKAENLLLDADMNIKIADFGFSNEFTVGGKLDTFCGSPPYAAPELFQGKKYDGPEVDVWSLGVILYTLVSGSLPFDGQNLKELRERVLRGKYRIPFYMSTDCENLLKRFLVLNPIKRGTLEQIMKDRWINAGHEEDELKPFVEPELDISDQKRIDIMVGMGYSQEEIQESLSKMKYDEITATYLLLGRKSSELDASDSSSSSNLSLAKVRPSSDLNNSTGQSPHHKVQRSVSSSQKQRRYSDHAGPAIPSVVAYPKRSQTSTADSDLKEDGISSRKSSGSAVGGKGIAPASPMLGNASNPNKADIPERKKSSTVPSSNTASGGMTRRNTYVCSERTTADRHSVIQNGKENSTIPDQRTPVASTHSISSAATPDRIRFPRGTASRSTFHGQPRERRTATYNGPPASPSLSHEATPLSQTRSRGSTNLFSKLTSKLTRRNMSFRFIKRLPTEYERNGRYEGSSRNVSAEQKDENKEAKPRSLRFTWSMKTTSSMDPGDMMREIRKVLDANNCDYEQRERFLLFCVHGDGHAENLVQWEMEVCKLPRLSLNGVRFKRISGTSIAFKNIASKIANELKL
Sequence of CSNK2A1 (human) (P68400 whole entry, looked up): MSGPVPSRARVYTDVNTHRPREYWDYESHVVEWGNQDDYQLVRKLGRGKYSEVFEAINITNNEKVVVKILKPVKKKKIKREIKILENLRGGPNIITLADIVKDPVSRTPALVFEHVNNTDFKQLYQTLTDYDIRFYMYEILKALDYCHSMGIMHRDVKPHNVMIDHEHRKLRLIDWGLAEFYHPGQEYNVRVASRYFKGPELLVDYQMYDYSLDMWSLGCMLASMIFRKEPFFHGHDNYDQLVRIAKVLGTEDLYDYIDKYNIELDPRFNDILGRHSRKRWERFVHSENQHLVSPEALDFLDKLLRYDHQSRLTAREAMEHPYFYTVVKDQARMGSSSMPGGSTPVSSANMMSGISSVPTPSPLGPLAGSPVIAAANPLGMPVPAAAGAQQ
Sequence of CHEK1 (human) (O14757 whole entry, looked up): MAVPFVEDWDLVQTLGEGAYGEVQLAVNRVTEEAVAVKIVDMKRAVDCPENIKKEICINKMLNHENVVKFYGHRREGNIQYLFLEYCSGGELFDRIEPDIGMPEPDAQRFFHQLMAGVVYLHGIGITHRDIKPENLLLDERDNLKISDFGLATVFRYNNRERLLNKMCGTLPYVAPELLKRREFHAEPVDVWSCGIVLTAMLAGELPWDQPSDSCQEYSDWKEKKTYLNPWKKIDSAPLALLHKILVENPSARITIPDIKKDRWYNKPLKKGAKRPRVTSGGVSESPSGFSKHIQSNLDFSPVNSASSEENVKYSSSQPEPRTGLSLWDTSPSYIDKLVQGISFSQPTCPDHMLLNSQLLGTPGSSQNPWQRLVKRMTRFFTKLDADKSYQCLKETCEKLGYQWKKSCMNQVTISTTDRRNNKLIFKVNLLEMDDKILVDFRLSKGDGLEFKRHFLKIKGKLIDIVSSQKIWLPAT
Sequence of CaMK1 (human) (Q14012 whole entry, looked up): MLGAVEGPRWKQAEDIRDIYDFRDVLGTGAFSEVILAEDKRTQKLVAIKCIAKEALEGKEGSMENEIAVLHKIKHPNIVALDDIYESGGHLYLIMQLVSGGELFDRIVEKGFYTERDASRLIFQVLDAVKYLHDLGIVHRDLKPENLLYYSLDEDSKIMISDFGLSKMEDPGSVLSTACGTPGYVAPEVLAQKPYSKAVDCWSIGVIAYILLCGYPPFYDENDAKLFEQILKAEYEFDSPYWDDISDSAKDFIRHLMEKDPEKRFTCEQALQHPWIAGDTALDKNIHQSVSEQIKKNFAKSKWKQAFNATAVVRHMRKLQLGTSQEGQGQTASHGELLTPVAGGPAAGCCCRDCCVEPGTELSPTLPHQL

residual activity ([1]; compound 0.1 µM): 81%
residual activity ([1]; compound 1.0 µM): 84%
residual activity ([2]; compound 0.1 µM): 91%
residual activity ([2]; compound 1.0 µM): 83%
residual activity ([3]; compound 0.1 µM): 104%
residual activity ([3]; compound 1.0 µM): 103%
residual activity ([4]; compound 0.1 µM): 86%
residual activity ([4]; compound 1.0 µM): 91%
residual activity ([5]; compound 0.1 µM): 88%
residual activity ([5]; compound 1.0 µM): 96%
residual activity ([6]; compound 0.1 µM): 115%
residual activity ([6]; compound 1.0 µM): 106%
residual activity ([7]; compound 0.1 µM): 90%
residual activity ([7]; compound 1.0 µM): 101%
residual activity ([8]; compound 0.1 µM): 92%
residual activity ([8]; compound 1.0 µM): 96%
residual activity ([9]; compound 0.1 µM): 92%
residual activity ([9]; compound 1.0 µM): 97%
residual activity ([10]; compound 0.1 µM): 86%
residual activity ([10]; compound 1.0 µM): 94%
residual activity ([11]; compound 0.1 µM): 104%
residual activity ([12]; compound 0.1 µM): 86%
residual activity ([12]; compound 1.0 µM): 80%
residual activity ([13]; compound 0.1 µM): 88%
residual activity ([13]; compound 1.0 µM): 92%
residual activity ([14]; compound 0.1 µM): 88%
residual activity ([14]; compound 1.0 µM): 88%
residual activity ([15]; compound 0.1 µM): 79%
residual activity ([15]; compound 1.0 µM): 79%
residual activity ([16]; compound 0.1 µM): 110%
residual activity ([16]; compound 1.0 µM): 99%
residual activity ([17]; compound 0.1 µM): 96%
residual activity ([17]; compound 1.0 µM): 97%
residual activity ([18]; compound 0.1 µM): 99%
residual activity ([18]; compound 1.0 µM): 100%
residual activity ([19]; compound 0.1 µM): 113%
residual activity ([19]; compound 1.0 µM): 115%
residual activity ([20]; compound 0.1 µM): 113%
residual activity ([21]; compound 0.1 µM): 90%
residual activity ([21]; compound 1.0 µM): 98%
residual activity ([22]; compound 0.1 µM): 103%
residual activity ([22]; compound 1.0 µM): 96%
residual activity ([23]; compound 0.1 µM): 95%
residual activity ([23]; compound 1.0 µM): 88%
residual activity ([24]; compound 0.1 µM): 96%
residual activity ([24]; compound 1.0 µM): 88%
residual activity ([25]; compound 0.1 µM): 92%
residual activity ([25]; compound 1.0 µM): 86%
residual activity ([26]; compound 0.1 µM): 85%
residual activity ([26]; compound 1.0 µM): 85%
SMILES: Cn1c(=O)c2c(ncn2C)n(C)c1=O

SMILES: C[C@H]1CCCC(=O)CCC/C=C/c2cc(O)cc(O)c2C(=O)O1
residual activity ([1]; compound 1.0 µM): 97%
residual activity ([1]; compound 10.0 µM): 89%
residual activity ([2]; compound 1.0 µM): 37%
residual activity ([2]; compound 10.0 µM): 23%
residual activity ([3]; compound 1.0 µM): 90%
residual activity ([3]; compound 10.0 µM): 52%
residual activity ([4]; compound 1.0 µM): 82%
residual activity ([4]; compound 10.0 µM): 32%
residual activity ([5]; compound 1.0 µM): 92%
residual activity ([5]; compound 10.0 µM): 81%
residual activity ([6]; compound 1.0 µM): 97%
residual activity ([6]; compound 10.0 µM): 96%
residual activity ([7]; compound 1.0 µM): 101%
residual activity ([7]; compound 10.0 µM): 75%
residual activity ([8]; compound 10.0 µM): 32%
residual activity ([9]; compound 1.0 µM): 85%
residual activity ([9]; compound 10.0 µM): 85%
residual activity ([10]; compound 1.0 µM): 93%
residual activity ([10]; compound 10.0 µM): 64%
residual activity ([11]; compound 1.0 µM): 107%
residual activity ([11]; compound 10.0 µM): 102%
residual activity ([12]; compound 1.0 µM): 75%
residual activity ([12]; compound 10.0 µM): 41%
residual activity ([13]; compound 1.0 µM): 69%
residual activity ([13]; compound 10.0 µM): 26%
residual activity ([27]; compound 1.0 µM): 66%
residual activity ([27]; compound 10.0 µM): 55%
residual activity ([14]; compound 1.0 µM): 84%
residual activity ([14]; compound 10.0 µM): 87%
residual activity ([15]; compound 1.0 µM): 102%
residual activity ([15]; compound 10.0 µM): 99%
residual activity ([16]; compound 1.0 µM): 89%
residual activity ([16]; compound 10.0 µM): 46%
residual activity ([17]; compound 10.0 µM): 66%
residual activity ([18]; compound 1.0 µM): 95%
residual activity ([18]; compound 10.0 µM): 90%
residual activity ([19]; compound 1.0 µM): 102%
residual activity ([19]; compound 10.0 µM): 86%
residual activity ([20]; compound 1.0 µM): 86%
residual activity ([20]; compound 10.0 µM): 45%
residual activity ([21]; compound 1.0 µM): 94%
residual activity ([21]; compound 10.0 µM): 60%
residual activity ([22]; compound 1.0 µM): 97%
residual activity ([22]; compound 10.0 µM): 91%
residual activity ([23]; compound 1.0 µM): 98%
residual activity ([23]; compound 10.0 µM): 86%
residual activity ([24]; compound 1.0 µM): 89%
residual activity ([24]; compound 10.0 µM): 34%
residual activity ([25]; compound 1.0 µM): 93%
residual activity ([25]; compound 10.0 µM): 84%
residual activity ([26]; compound 1.0 µM): 79%
residual activity ([26]; compound 10.0 µM): 35%
